Results as given in ChEMBL document CHEMBL1144017, “Novel AMPA and kainate receptor antagonists containing the pyrazolo[1,5-c]quinazoline ring system: Synthesis and structure-activity relationships” (Bioorg Med Chem, 2008).

Tests used:
[1] = Displacement of [3H]AMPA from AMPA receptor in rat cortical membrane; assay type: cell membranes
Rattus norvegicus [2] = species on record: Rattus norvegicus; experiment: Ratio of Ki for rat NMDA receptor to Ki for rat AMPA receptor
Glutamate NMDA receptor = experiment: Displacement of [3H]glycine from NMDA receptor in rat cortical membrane; assay type: cell membranes
[3] = Displacement of [3H]kainate from KA receptor in rat cortical membrane; assay type: cell membranes
[4] = biological target: Glutamate NMDA receptor (Rattus norvegicus) (UniProt P35439+Q00959+Q00960+Q00961+Q62645+Q8VHN2+Q9R1M7); experiment: Displacement of [3H]glycine from NMDA receptor in rat cortical membrane at 100 uM; assay type: cell membranes
Rattus norvegicus [5] = species on record: Rattus norvegicus; experiment: Displacement of [3H]kainate from KA receptor in rat cortical membrane at 100 uM; assay type: cell membranes
Rattus norvegicus [6] = species on record: Rattus norvegicus; experiment: Displacement of [3H]AMPA from AMPA receptor in rat cortical membrane at 100 uM; assay type: cell membranes
[7] = biological target: Glutamate NMDA receptor (Mus musculus); experiment: Antagonist activity at NMDA receptor assessed as inhibition of NMDA-induced depolarization in mouse cortical wedge preparation by electrophysiology assay
[8] = biological target: AMPA receptor (Mus musculus); experiment: Antagonist activity at AMPA receptor assessed as inhibition of AMPA-induced depolarization in mouse cortical wedge preparation by electrophysiology assay

SMILES | Ki [1] | Ratio Ki (Rattus norvegicus [2]) | Ki (Glutamate NMDA receptor) | IC50 [3] | Activity [4] | Activity (Rattus norvegicus [5]) | Activity (Rattus norvegicus [6]) | IC50 [7] | IC50 [8]
O=C(Nc1cc2c(cc1Cl)[nH]c(=O)n1nc(C(=O)O)c(C(=O)O)c21)NC(Cc1ccccc1)C(=O)O (racemic) | 0.47 µM | 129 | 61 µM | 40 µM | – | – | – | – | –
O=C(NCc1ccccc1)Nc1cc2c(cc1Cl)[nH]c(=O)n1nc(C(=O)O)c(C(=O)O)c21 | 0.37 µM | 44 | 16.3 µM | 11 µM | – | – | – | – | –
CCNC(=O)Nc1cc2c(cc1Cl)[nH]c(=O)n1nc(C(=O)OCC)c(C(=O)OCC)c21 | 27 µM | > 3.7 | – | – | 44% | 13% | – | – | –
O=C(NCCc1ccccc1)Nc1cc2c(cc1Cl)[nH]c(=O)n1nc(C(=O)O)c(C(=O)O)c21 | 0.48 µM | – | 31 µM | 17 µM | – | – | – | – | –
CCOC(=O)c1nn2c(=O)[nH]c3cc(Cl)c([N+](=O)[O-])cc3c2c1Cl | 63 µM | > 1.5 | – | – | 45% | 25% | – | – | –
CCOC(=O)c1nn2c(=O)[nH]c3cc(Cl)c([N+](=O)[O-])cc3c2c1C(=O)OCC | – | – | – | – | 30% | 0% | 40% | – | –
CCOC(=O)c1c(C(=O)O)nn2c(=O)[nH]c3cc(Cl)c([N+](=O)[O-])cc3c12 | 0.94 µM | 5 | 4.7 µM | 60 µM | – | – | – | – | –
CCOC(=O)CCNC(=O)Nc1cc2c(cc1Cl)[nH]c(=O)n1nc(C(=O)OCC)c(C(=O)OCC)c21 | 3.8 µM | > 26 | – | – | 32% | 32% | – | – | –
CCOC(=O)c1nn2c(=O)[nH]c3cc(Cl)c(NC(=O)NCc4ccccc4)cc3c2c1C(=O)OCC | – | – | – | – | 19% | 0% | 44% | – | –
CCOC(=O)c1ccc(NC(=O)Nc2cc3c(cc2Cl)[nH]c(=O)n2nc(C(=O)OCC)c(C(=O)OCC)c32)cc1 | – | – | – | – | 5% | 15% | 5% | – | –
CCOC(=O)CCCNC(=O)Nc1cc2c(cc1Cl)[nH]c(=O)n1nc(C(=O)OCC)c(C(=O)OCC)c21 | 3.5 µM | 28 | 99 µM | – | – | 24% | – | – | –
O=C(Nc1ccccc1)Nc1cc2c(cc1Cl)[nH]c(=O)n1nc(C(=O)O)c(C(=O)O)c21 | 0.14 µM | 83.5 | 11.7 µM | 11 µM | – | – | – | – | –
O=C(O)c1cc2c3cc(-n4cnnc4)c(Cl)cc3[nH]c(=O)n2n1 | 0.14 µM | – | – | – | – | – | – | – | –
O=C(O)CCNC(=O)Nc1cc2c(cc1Cl)[nH]c(=O)n1nc(C(=O)O)c(C(=O)O)c21 | 0.16 µM | 425 | 68 µM | 4.6 µM | – | – | – | – | –
CCOC(=O)c1nn2c(=O)[nH]c3cc(Cl)c(NC(=O)NC(Cc4ccccc4)C(=O)OC)cc3c2c1C(=O)OCC (racemic) | – | – | – | – | 16% | 16% | 46% | – | –
O=C(O)c1nn2c(=O)[nH]c3cc(Cl)c([N+](=O)[O-])cc3c2c1C(=O)O | 0.59 µM | 2 | 1.25 µM | 11.7 µM | – | – | – | – | –
O=C(O)CNC(=O)Nc1cc2c(cc1Cl)[nH]c(=O)n1nc(C(=O)O)c(C(=O)O)c21 | 0.48 µM | 112 | 54 µM | 4.4 µM | – | – | – | – | –

SMILES | Ki [1] | Ratio Ki (Rattus norvegicus [2]) | Ki (Glutamate NMDA receptor) | IC50 [3] | Activity [4] | Activity (Rattus norvegicus [5]) | Activity (Rattus norvegicus [6]) | IC50 [7] | IC50 [8]
CCOC(=O)c1nn2c(=O)[nH]c3cc(Cl)c(-n4ccc(C=O)c4)cc3c2c1C(=O)OCC | 15.7 µM | > 6 | – | – | 20% | 17% | – | – | –
CCOC(=O)c1nn2c(=O)[nH]c3cc(Cl)c(NC(=O)NCCc4ccccc4)cc3c2c1C(=O)OCC | – | 0.49 | 49 µM | – | – | 9% | 44% | – | –
O=C(O)c1nn2c(=O)[nH]c3cc(Cl)c(-n4cnnc4)cc3c2c1C(=O)O | 0.1 µM | > 1000 | – | 2.4 µM | 43% | – | – | > 10 µM | 2.5 µM
CCOC(=O)c1nn2c(=O)[nH]c3cc(Cl)c(-n4cccc4)cc3c2c1C(=O)OCC | 48 µM | > 2 | – | – | 13% | 12% | – | – | –
CCOC(=O)c1cccc(NC(=O)Nc2cc3c(cc2Cl)[nH]c(=O)n2nc(C(=O)OCC)c(C(=O)OCC)c32)c1 | – | – | – | – | 0% | 0% | 18% | – | –
CCOC(=O)c1nn2c(=O)[nH]c3cc(Cl)c(-n4cnnc4)cc3c2c1C(=O)OCC | 1.2 µM | > 80 | – | 82 µM | 18% | – | – | > 20 µM | 5.8 µM
O=C(O)c1nn2c(=O)[nH]c3cc(Cl)c([N+](=O)[O-])cc3c2c1[N+](=O)[O-] | 11.9 µM | 1.7 | 20.5 µM | – | – | 29% | – | – | –
O=C(O)c1nn2c(=O)[nH]c3cc(Cl)c(-n4cccc4)cc3c2c1C(=O)O | 0.13 µM | 154 | 20 µM | 4.5 µM | – | – | – | – | –
CCOC(=O)CNC(=O)Nc1cc2c(cc1Cl)[nH]c(=O)n1nc(C(=O)OCC)c(C(=O)OCC)c21 | 8.9 µM | > 11 | – | – | 43% | 19% | – | – | –
CCNC(=O)Nc1cc2c(cc1Cl)[nH]c(=O)n1nc(C(=O)O)c(C(=O)O)c21 | 0.56 µM | 73.3 | 41 µM | 9.8 µM | – | – | – | – | –
CCOC(=O)c1nn2c(=O)[nH]c3cc(Cl)c(NC(=O)Nc4ccccc4)cc3c2c1C(=O)OCC | – | – | – | – | 11% | 0% | 20% | – | –
O=C(O)c1ccccc1C(=O)Nc1cc2c(cc1Cl)[nH]c(=O)n1nc(C(=O)O)c(C(=O)O)c21 | 1.3 µM | 20.7 | 27 µM | 0.52 µM | – | – | – | – | –
O=C(Nc1cccc(C(=O)O)c1)Nc1cc2c(cc1Cl)[nH]c(=O)n1nc(C(=O)O)c(C(=O)O)c21 | 0.42 µM | 83 | 35 µM | 3 µM | – | – | – | – | –
CCOC(=O)c1nn2c(=O)[nH]c3cc(Cl)c([N+](=O)[O-])cc3c2c1[N+](=O)[O-] | – | 0.4 | 36.2 µM | – | – | 16% | 45% | – | –
O=C(Nc1ccc(C(=O)O)cc1)Nc1cc2c(cc1Cl)[nH]c(=O)n1nc(C(=O)O)c(C(=O)O)c21 | 1.1 µM | 44 | 49 µM | 13 µM | – | – | – | – | –
O=C(O)c1nn2c(=O)[nH]c3cc(Cl)c([N+](=O)[O-])cc3c2c1Cl | 1.3 µM | 1.9 | 2.5 µM | 94 µM | – | – | – | – | –
CCOC(=O)c1nn2c(=O)[nH]c3cc(Cl)c(NC(=O)c4ccccc4C(=O)O)cc3c2c1C(=O)OCC | 2.8 µM | 12.8 | 36 µM | 0.11 µM | – | – | – | – | –
